Measurements as given in US20040209849A1, “Use of effectors of the central cholinergic nervous system for treatment of delirium” (priority 1998, published 2004).

Tested on: non-anticholinergic delirium (lithium poisoning, severe hyperactive delirium)
Experiment: Individual case: treatment of a non-anticholinergic (lithium poisoning) delirium with orally administered rivastigmine
Type: in vivo, human
Settings: patient, after 48 hours of therapy at 2×1.5 mg
Source text: Treatment of a non-anticholinergic delirium with an orally administered modern inhibitor of acetylcholine esterase, rivastigmine
A patient had suffered from manic-depressive disease. Until recently there were no mental disintegration phenomena. After a urinary tract infection with lithium therapy of the manic-depressive condition, lithium poisoning occurred with a severe hyperactive delirium which forced the patient to be admitted to a hospital on an in-patient ward. These lithium poisoning deliria generally subside completely only after 6-8 weeks. The patient was transferred to a private clinic after 4 days and was highly psychotic, urinated in the corner of the room, talked to the lamp on the night table, hallucinated strange individuals and dwarves in the room, repeatedly fled the ward, believed that the nursing personnel wanted to kill them, was extremely agitated in motor response and restless, fumbled around with the blanket and phone cord, fell asleep repeatedly during the day, but remained up all night. The patient cried and laughed in alternation, suddenly became afraid again and again and then laughed. All these symptoms were very unstable, highly varied, but the patient was not actually responsive on the admission date. On the Trzepacz scale of delirium (Psychiatry Research, 23, (1988), […]) a score of 29 (of a possible 32) corresponding to a severe delirium was reached. […]

CCN(C)C(=O)Oc1cccc([C@H](C)N(C)C)c1 [rivastigmine]
clinical state after therapy: the patient was oriented, no longer hallucinated | delirium score on the Trzepacz scale of delirium (score before therapy 29 (of a possible 32)): 8
